# Measurements: patent publication US7279332B2, “Method of isolating ependymal neural stem cells” (NeuroNova AB, priority 1998, dated 2007)
# System: nigral dopamine neurons (substantia nigra pars compact)
# Experiment: Quantitative in vivo neurogenesis in substantia nigra pars compact after DiI labeling of ependymal cells
# Conditions: mice
# Experimental: Adult rats and mice were given DiI through intraventricular injections as described in the example above. At various time intervals after the injection (hours-months), the animals were transcardially perfused with 15 ml 0.9% saline, followed by 50 ml of +4° C. 4% (w/v) paraformaldehyde and 0.4% (v/v) picric acid in 0.1 M phosphate buffered saline, pH 6.9, during 5 min. After brain removal, the tissue was fixed for an additional 90 minutes in the same fixative and cryoprotected in buffered sucrose (10% for 24 h, 30% for 2 days) at +4° C. The entire midbrain was cut with a cryostat using a systematic, uniform random sampling design, where 40 μm thick frontal sections were taken to six parallel rostrocaudal series. One series of sections was kept in 0.1 M PBS and the fluorescent signal was immediately converted to a permanent diaminobenzidine (DAB) signal using a modified previously described protocol (Singleton et al., J. Neurosci. Meth. 64:47). […] The photoconversion process was carefully evaluated and when all the fluorescent signal in substantia nigra was visualized with the brown DAB product, the sections were immunohistochemically labeled with a marker (Vector SG, Vector) for dopamine neurons (tyrosine hydroxylase) utilizing the avidin-biotin-immunoperoxidase system (Vector) (Janson et al., Neuroscience 57:931). The five parallel series of sections were instead stored in 30% sucrose in 0.1 M PBS at −20° C. until they were processed for immunohistochemistry and analyzed in a confocal laser scanning microscope utilizing several markers for glia and neurons (with appropriate controls) to determine the neuronal phenotype of the DiI labeled cells in substantia nigra pars compact (FIG. 8).
# Quantitative estimates of the total number of TH immunoreactive cell bodies counterstained with cresyl violet (TH/CV+ neurons) as well as TH immunoreactive cell bodies also containing DiI label were made in the bilateral SNc. Neuronal counts were determined using coded sections and a stereological technique, the optical fractionator (Janson et al., Neuroscience 57:931). […]
smiles,measurement,setting,value
"CN1CC=C(c2ccccc2)CC1 [MPTP, 1-methyl-4-phenyl-1,2,3,6-tetrahydropyridine]",number of TH+/DiI+ nigral neurons,MPTP 40 mg/kg sc. vs vehicle,higher numbers of TH+/DiI+ nigral neurons
same,migratory streams of DiI+ cells in the midbrain,"MPTP 40 mg/kg sc. vs vehicle, qualitative appearance",appeared more pronounced
same,"increase in number of new neurons generated each week in substantia nigra, compared to animals treated with vehicle alone","MPTP 40 mg/kg sc., regression curve (r^2=0.744) of counts at a few hours to 2 months",24%
